The NIST ThermoML archive (doi:10.1016/j.jct.2013.10.001)
“And” between values parts separate entries of the source, which are not always exact repeats. Equal values may be shown once.

Conditions: Liquid

CC(C)CCCC(C)CCCC(C)CCCCC(C)CCCC(C)CCCC(C)C (configuration not stated) [2,6,10,15,19,23-hexamethyltetracosane]
viscosity
Conditions	Falling or rolling sphere viscometry	quartz resonator viscometer
293.15 K, 10220 kPa	–	45.8 mPa·s and 46.2 mPa·s
293.15 K, 20250 kPa	–	57.9 mPa·s and 58.5 mPa·s
293.15 K, 30090 kPa	–	70.8 mPa·s and 71.5 mPa·s
293.15 K, 40100 kPa	–	87 mPa·s and 87.9 mPa·s
293.15 K, 50070 kPa	–	108.1 mPa·s and 109.2 mPa·s
293.15 K, 60060 kPa	–	130 mPa·s and 131.3 mPa·s
293.15 K, 71000 kPa	–	160.4 mPa·s and 162.1 mPa·s
293.15 K, 80600 kPa	–	180.6 mPa·s and 182.4 mPa·s
303.15 K, 11300 kPa	–	28.6 mPa·s and 28.5 mPa·s
303.15 K, 19900 kPa	–	34.1 mPa·s and 34 mPa·s
303.15 K, 20000 kPa	34.78 mPa·s	–
303.15 K, 31400 kPa	–	43.9 mPa·s and 43.8 mPa·s
303.15 K, 40000 kPa	51.64 mPa·s	–
303.15 K, 40600 kPa	–	53 mPa·s and 52.9 mPa·s
303.15 K, 50900 kPa	–	64.7 mPa·s and 64.6 mPa·s
303.15 K, 60000 kPa	74.96 mPa·s	78.3 mPa·s and 78.1 mPa·s
303.15 K, 71700 kPa	–	94.7 mPa·s and 94.5 mPa·s
303.15 K, 80000 kPa	107.09 mPa·s	107.8 mPa·s and 107.5 mPa·s
303.15 K, 100000 kPa	146.47 mPa·s	–
303.15 K, 120000 kPa	210.53 mPa·s	–
303.15 K, 140000 kPa	305.4 mPa·s	–
303.15 K, 160000 kPa	422.48 mPa·s	–
313.15 K, 10000 kPa	16.8 mPa·s	–
313.15 K, 10110 kPa	–	18.2 mPa·s and 18.3 mPa·s
313.15 K, 15000 kPa	18.9 mPa·s	–
313.15 K, 20170 kPa	–	22.4 mPa·s and 22.6 mPa·s
313.15 K, 25000 kPa	23.8 mPa·s	–
313.15 K, 29620 kPa	–	26.6 mPa·s and 26.9 mPa·s
313.15 K, 40550 kPa	–	32.5 mPa·s and 32.8 mPa·s
313.15 K, 49650 kPa	–	38.5 mPa·s and 38.8 mPa·s
313.15 K, 50000 kPa	39.2 mPa·s and 36.3 mPa·s	–
313.15 K, 60500 kPa	–	47 mPa·s and 47.4 mPa·s
313.15 K, 70400 kPa	–	55.9 mPa·s and 56.4 mPa·s
313.15 K, 75000 kPa	61.2 mPa·s and 59.6 mPa·s	–
313.15 K, 80670 kPa	–	66.4 mPa·s and 66.9 mPa·s
313.15 K, 100000 kPa	92.3 mPa·s and 91.3 mPa·s	–
313.15 K, 125000 kPa	136.4 mPa·s and 134.8 mPa·s	–
313.15 K, 150000 kPa	199 mPa·s and 194.1 mPa·s	–
313.15 K, 175000 kPa	275.3 mPa·s	–
313.15 K, 200000 kPa	386.2 mPa·s	–
313.15 K, 225000 kPa	537.7 mPa·s	–
313.15 K, 250000 kPa	744.7 mPa·s	–
323.15 K, 10250 kPa	–	12.8 mPa·s and 12.7 mPa·s
323.15 K, 20000 kPa	15.77 mPa·s	–
323.15 K, 20340 kPa	–	15.5 mPa·s
323.15 K, 30170 kPa	–	18.4 mPa·s
323.15 K, 40000 kPa	22.36 mPa·s	–
323.15 K, 40160 kPa	–	21.8 mPa·s
323.15 K, 50130 kPa	–	25.8 mPa·s
323.15 K, 60000 kPa	31.17 mPa·s	–
323.15 K, 60110 kPa	–	30.8 mPa·s and 30.8 mPa·s
323.15 K, 70120 kPa	–	36.2 mPa·s
323.15 K, 80000 kPa	42.71 mPa·s	–
323.15 K, 80060 kPa	–	43 mPa·s
323.15 K, 100000 kPa	57.75 mPa·s	–
323.15 K, 120000 kPa	77.38 mPa·s	–
323.15 K, 140000 kPa	102.35 mPa·s	–
323.15 K, 160000 kPa	135.1 mPa·s	–
323.15 K, 180000 kPa	175.94 mPa·s	–
323.15 K, 200000 kPa	228.18 mPa·s	–
